Experiments:
U373 glioma cells = test: MTT test, overall cell growth, U373; type: cell-based, human; settings: 72 hours of incubation
Summary of the method: (§1)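 Glioma (Hs683, T98G, U373) and oesophageal (OE21, OE33) lines seeded at 5,000–8,000 cells/well, treated 24 h later with compound at 1×10^−8 to 1×10^−4 M for 72 h at 37 °C, in sestuplicate.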

T98G glioma cells = test: MTT test, overall cell growth, T98G; type: cell-based, human; settings: 72 hours of incubation
Summary of the method: as §1

[1] = tested on: OE21 oesophageal cancer cells; test: MTT test, overall cell growth, OE21; type: cell-based, human
Summary of the method: as §1

DYRK1A protein kinase = DYRK1A protein kinase (Homo sapiens (Human), UniProt Q13627); test: Radiometric protein kinase assay (33PanQinase Activity Assay); type: biochemical; settings: 10 concentrations in triplicate, 1 μM ATP; read-out: IC50: Concentration of drug (μM) needed in order to inhibit dyrk1A kinase activity by 50%
Protocol: The IC50 profile of JR212, JR220, JR84, CV12, CV24, and JR95 was determined on DYRK1A protein kinase. […] Compound cv12 was tested in the range from about 5×10^−5 M to about 1.5×10^−9 M in triplicate.
A radiometric protein kinase assay (33PanQinase® Activity Assay) was used for measuring the kinase activity of DYRK1A protein kinase. All kinase assays were performed in 96-well FlashPlates™ from Perkin Elmer (Boston, Mass., USA) in a 50 μl reaction volume. The reaction cocktail was pipetted in four steps in the following order: 20 μl of assay buffer (standard buffer); 5 μl of [γ-33P]-ATP solution (in H2O); 5 μl of test compound (in 10% DMSO); 10 μl of substrate/10 μl of enzyme solution (premixed).
The assay contained 60 mM HEPES-NaOH, pH 7.5, 3 mM MgCl2, 3 mM MnCl2, 3 μM Na-orthovanadate, 1.2 mM DTT, 50 μg/ml PEG20000, 1 μM [γ-^33P]-ATP (approx. 3×10^5 cpm per well), protein kinase, and substrate.
For the determination of inhibitory profiles, DYRK1A protein kinase was used, which was purchased from Invitrogen Corporation. The kinase was expressed in […] as human recombinant GST-fusion protein by means of the baculovirus expression system. According to the data sheet, the purity of the kinase was checked by SDS-PAGE/Coomassie staining and the identity of the kinase was verified by mass spectroscopy. About 5 ng/50 μl (about 0.9 nM) of dyrk1A kinase and about 2000 ng/50 μl of substrate (RBER-CHKtide) are used in each assay.
The reaction cocktails were incubated at 30° C. for 60 minutes. The reaction was stopped with 50 μl of 2% (v/v) H3PO4, plates were aspirated and washed two times with 200 μl 0.9% (w/v) NaCl. Incorporation of ^33P was determined with a microplate scintillation counter (Microbeta, Wallac).
All assays were performed with a BeckmanCoulter/SAGIAN™ Core System.
For each plate, the median value of the cpm of the wells with complete reaction cocktails, but without kinase or compound to be tested, was defined as “low control” (n=8). This value reflects unspecific binding of radioactivity to the plate in the absence of protein kinase but in the presence of the substrate. Additionally, for each plate the median value of the cpm of the wells with the complete reaction cocktail, but without any compound, was taken as the “high control”, i.e., full activity in the absence of any inhibitor (n=8). The difference between high and low control of was taken as 100% activity for each kinase. As part of the data evaluation the “low control” value from a particular plate was subtracted from the “high control” value as well as from all 80 “compound values” of the corresponding plate. The residual activity (in %) for each compound well was calculated by using the following formula: Res. Activity (%)=100×[(cpm of compound−low control)/(high control−low control)].

[2] = Homo sapiens, OE21, 72 hours of incubation

IC50 (DYRK1A protein kinase) | IC50 (U373 glioma cells; Homo sapiens, U373 MG) | IC50 (T98G glioma cells; Homo sapiens, T98G) | IC50 [1, 2] | Compound | IC50 (U373 glioma cells) | IC50 (T98G glioma cells) | IC50 ([1]; 72 hours of incubation)
10 µM | – | – | – | Cc1nccc2c1[nH]c1cc(OCc3cccnc3)ccc12 [JR212] | 24 ± 1 µM | 29 ± 2 µM | 28 ± 2 µM
21.2 µM | 0.44 ± 0.01 µM | 0.48 ± 0.02 µM | 1.3 ± 0.2 µM | Cc1c2c(cc[n+]1Cc1ccccc1)c1ccc(OCc3ccccc3)cc1n2Cc1ccccc1.[Br-] [CV21/JR95, 1-methyl-2-benzyl-7-benzyloxy-9-benzyl-β-carbolin-2-ium bromide] | – | – | –
16.3 µM | 18 ± 2 µM | 36 ± 2 µM | 28 ± 3 µM | Cc1nccc2c3ccc(OCc4ccccc4)cc3n(Cc3ccccc3)c12 [CV9/JR84, 1-methyl-7-benzyloxy-9-benzyl-β-carboline] | – | – | –

Compound | IC50 (DYRK1A protein kinase) | IC50 (U373 glioma cells; Homo sapiens, U373 MG) | IC50 (T98G glioma cells; Homo sapiens, T98G) | IC50 [1, 2] | IC50 (U373 glioma cells) | IC50 (T98G glioma cells) | IC50 ([1]; 72 hours of incubation)
COCCOc1ccc2c(c1)[nH]c1c(C)nccc12 [JR220] | 15.5 µM | – | – | – | 64 ± 4 µM | 61 ± 7 µM | 53 ± 4 µM

From US9168247B2, “Beta carboline derivatives useful in the treatment of proliferative disorders” (FACULTES UNIVERSITAIRES NOTRE DAME DE LA PAIX, priority 2010, dated 2015)
